# Experimental data as given in patent publication US10086030B2, “Use of composition in preparing health care products or medicines for preventing and treating allergic diseases” (JIANGZHONG PHARMACEUTICAL CO., LTD., priority 2012, dated 2018).
# “And” between values parts separate entries of the source, which are not always exact repeats. Equal entries are not always repeated.
# How the values were obtained:
# [1] = tested on: allergic asthma in rats caused by OVA; assay: Allergic asthma in rats caused by OVA: latent period of asthma, serum IL-4 and IFN-γ, EOS content in lung tissues; format: in vivo, SD rats
# From the text: Rats (half thereof were male and the other half female) were randomly divided into two groups, i.e., a blank control group of 10 animals and a modeling group of 70 animals. After a successful modeling, the rats were randomly divided into the following groups: a model control group, a positive drug group (dexamethasone group), and groups on the low, medium, and high doses of Composition 3, with 10 animals in each group.
# On day 1, all animals except those in the blank control group were sensitized by intraperitoneal injection with 1 ml suspension containing 10 mg OVA, 200 mg Al(OH)3 dry powder, and 6×10^9 inactivated pertussis vaccines in physiological saline, and were sensitized once again on day 8.
# The daily intake of the test drug Composition 3 composite powder recommended for one person was 24 g crude drug/60 kg body weight. On the basis thereof, the calculated daily intake for a rat was: low dose group: 1.0 g crude drug/kg body weight; medium dose group: 2.0 g crude drug/kg body weight; high dose group: 6.0 g crude drug/kg body weight, which were 2.5, 5 and 15 times the daily intake for a human, respectively. […] The volume of intragastric administration was calculated as 1.0 ml/100 g body weight. The model control group was intragastrically given an equivalent volume of 0.9% physiological saline 30 minutes before challenging; and the positive drug group was given dexamethasone at a dose of 0.5 mg/kg 30 min before each challenging^[2]. The groups on the low, medium and high doses of Composition 3 were each intragastrically given the respective dose of the test drug 30 min before each challenging. […]
# A ZH-100 respiratory transducer was tied around the thoracic cage of each rat (the tension was adjusted to about 1 to 2 g so that the amplitude of the respiratory wave was 1 to 2 my). […] The acquisition system was turned on and a segment of normal respiratory wave was recorded. Then ultrasonic atomization with 1% OVA was applied for 20 min, and the respiratory waves of induced asthma in the rats were continuously recorded over 30 min after the atomization was initiated. Meanwhile, the period from the beginning of atomization to occurrence of symptoms (indicated by the first twitch) was visually observed and recorded as the latent period of asthma.
# 24 h after the final challenge, the rats were anaesthetized by intraperitoneal injection with 3% sodium pentobarbital (30 mg/kg). 5 to 10 ml blood was drawn, and serum IL-4 and IFN-γ levels were measured by ELISA.
# The left lung tissues were cut off and fixed in 4% polyformaldehyde for 4 to 5 h, then washed with water, dehydrated with an alcohol gradient, and immersed and embedded in paraffine. HE staining was performed with a successive sectioning process, inflammatory changes in the tissues were observed, and EOS infiltration was counted. For each section, 10 fields were randomly chosen under a microscope at high magnification (×400) by the same observer, and the numbers of EOS infiltration around bronchus and vessels were calculated and averaged as the representative value for this section.
# The daily intake of the test drug Composition 4 composite powder recommended for one person was 24 g crude drug/60 kg body weight. On the basis thereof, the calculated daily intake for a rat was: low dose group: 1.0 g crude drug/kg body weight; medium dose group: 2.0 g crude drug/kg body weight; high dose group: 6.0 g crude drug/kg body weight, which were 2.5, 5 and 15 times the daily intake for a human, respectively.
# [2] = tested on: allergic asthma in guinea pigs caused by a mixed gas of Ach and His; assay: Allergic asthma in guinea pigs caused by a mixed gas of Ach and His: latent period, total IgE in serum and BALF, EOS content in lung tissues; format: in vivo; conditions: for latent period of asthma, Before dosing: before dosing (baseline)
# Protocol: 2.2 Effect on Allergic Asthma in Guinea Pigs Caused by a Mixed Gas of Ach and his
# On day 1, guinea pigs were placed in a closed 4 L glass bell jar, into which a 1:1 mixture solution of 2% Ach and 0.4% His was sprayed by ultrasonic atomization for 15 s. After completion of spraying, the latent period of asthma induced in the guinea pigs was recorded (i.e., the period from the end of the spraying to asthmatic onsets, extreme difficulty in breathing till twitching and falling down). Animals having a latent period of asthma longer than 120 s were excluded.
# Dual-antibody sandwich radioimmunoassay was employed.
# [3] = tested on: allergic asthma in rats caused by OVA; assay: Allergic asthma in rats caused by OVA: latent period of asthma, serum IL-4 and IFN-γ, EOS content in lung tissues; format: in vivo, SD rats; conditions: dexamethasone 0.5 mg/kg; for latent period of asthma, Before dosing: before dosing (baseline)
# [4] = baseline, positive control group (dexamethasone 0.5 mg/kg)
# [5] = positive control dexamethasone 0.5 mg/kg, 21 days
# [6] = dexamethasone 0.5 mg/kg, Composition 6 study
# [7] = dexamethasone 0.5 mg/kg, Composition 7 study
# [8] = dexamethasone 0.5 mg/kg, Composition 5 study
structure (smiles),measurement,setting,value
C[C@@H]1C[C@H]2[C@@H]3CCC4=CC(=O)C=C[C@]4(C)[C@@]3(F)[C@@H](O)C[C@]2(C)[C@@]1(O)C(=O)CO [dexamethasone],"latent period of asthma induced, Before dosing",[1]; [4],75.84 ± 12.36 and 74.66 ± 11.09 and 74.64 ± 11.03
same,"latent period of asthma induced, After dosing","[1]; positive control dexamethasone 0.5 mg/kg 30 min before each challenge, 21 days",162.61 ± 17.88^ΔΔ and 159.77 ± 20.28^ΔΔ and 160.21 ± 20.32^ΔΔ
same,EOS content in lung tissues,[1]; [5],27.51 ± 4.31^ΔΔ cells/HP and 28.39 ± 4.26^ΔΔ cells/HP and 28.42 ± 4.24^ΔΔ cells/HP
same,serum IFN-γ,[1]; [5],20.51 ± 4.65^ΔΔ pg/ml and 20.26 ± 4.86^ΔΔ pg/ml and 20.27 ± 4.88^ΔΔ pg/ml
same,serum IL-4,[1]; [5],12.88 ± 4.13^ΔΔ pg/ml and 13.51 ± 4.31^ΔΔ pg/ml and 13.50 ± 4.28^ΔΔ pg/ml
same,total IgE in BALF,"[2]; BALF, positive control group, 0.5 mg/kg",3.62 ± 0.62^ΔΔ U/L
same,"latent period of asthma, After dosing","[2]; after dosing, dexamethasone 0.5 mg/kg, Composition 6 study",155.78 ± 16.29^ΔΔ
same,"latent period of asthma, After dosing","[2]; after dosing, dexamethasone 0.5 mg/kg, Composition 7 study",150.46 ± 16.80^ΔΔ
same,"latent period of asthma induced in guinea pigs, after dosing","[2]; after dosing, positive control group, 0.5 mg/kg",156.77 ± 16.18^ΔΔ
same,"latent period of asthma induced, Before dosing",[2]; [4],77.32 ± 13.95 and 75.63 ± 9.09 and 75.65 ± 9.10
same,"latent period of asthma induced in guinea pigs, before dosing","[2]; before dosing (after modeling), positive control group, 0.5 mg/kg",74.63 ± 9.04
same,"latent period of asthma, Before dosing",[2]; [6],75.62 ± 9.10
same,"latent period of asthma, Before dosing",[2]; [7],70.68 ± 9.65
same,EOS content in lung tissues,[2]; [8],30.77 ± 7.21^ΔΔ cells/HP
same,total IgE in BALF,[2]; [8],3.70 ± 0.73^ΔΔ U/L
same,total IgE in serum,[2]; [8],3.74 ± 1.32^ΔΔ U/L
same,EOS content in lung tissues,[2]; [6],30.80 ± 7.23^ΔΔ cells/HP
same,total IgE in BALF,[2]; [6],3.71 ± 0.70^ΔΔ U/L
same,total IgE in serum,[2]; [6],3.74 ± 1.30^ΔΔ U/L
same,EOS content in lung tissues,[2]; [7],31.70 ± 9.52^ΔΔ cells/HP
same,total IgE in BALF,[2]; [7],3.50 ± 0.78^ΔΔ U/L
same,total IgE in serum,[2]; [7],3.70 ± 1.26^ΔΔ U/L
same,EOS content in guinea pigs' lung tissues,"[2]; lung tissues, positive control group, 0.5 mg/kg",30.69 ± 7.35^ΔΔ cells/HP
same,EOS content in lung tissues,[2]; [5],31.78 ± 7.55^ΔΔ cells/HP and 30.79 ± 7.25^ΔΔ cells/HP
same,"latent period of asthma induced, After dosing",[2]; [5],160.92 ± 19.72^ΔΔ and 155.77 ± 16.28^ΔΔ and 155.78 ± 16.24^ΔΔ
same,total IgE in BALF,[2]; [5],3.49 ± 0.82^ΔΔ U/L and 3.72 ± 0.72^ΔΔ U/L
same,total IgE in serum,[2]; [5],3.58 ± 1.19^ΔΔ U/L and 3.75 ± 1.31^ΔΔ U/L
same,total IgE in serum,"[2]; serum, positive control group, 0.5 mg/kg",3.65 ± 1.21^ΔΔ U/L
same,"latent period of asthma, After dosing",[3]; Composition 6 study,159.78 ± 20.27^ΔΔ
same,"latent period of asthma, After dosing",[3]; Composition 7 study,156.30 ± 21.44^ΔΔ
same,"latent period of asthma, After dosing",[3]; Composition 8 study,159.87 ± 20.38^ΔΔ
same,"latent period of asthma, Before dosing",[3]; Composition 6 study,74.67 ± 11.10
same,"latent period of asthma, Before dosing",[3]; Composition 7 study,72.88 ± 10.96
same,"latent period of asthma, Before dosing",[3]; Composition 8 study,73.66 ± 11.19
same,EOS content in lung tissues,[3]; Composition 6 study,28.40 ± 4.25^ΔΔ cells/HP
same,IFN-γ (serum),[3]; Composition 6 study,20.27 ± 4.89^ΔΔ pg/ml
same,IL-4 (serum),[3]; Composition 6 study,13.50 ± 4.32^ΔΔ pg/ml
same,EOS content in lung tissues,[3]; Composition 7 study,35.64 ± 6.18^ΔΔ cells/HP
same,IFN-γ (serum),[3]; Composition 7 study,19.29 ± 4.04^ΔΔ pg/ml
same,IL-4 (serum),[3]; Composition 7 study,12.90 ± 4.67^ΔΔ pg/ml
same,EOS content in lung tissues,[3]; Composition 8 study,28.39 ± 4.26^ΔΔ cells/HP
same,IFN-γ (serum),[3]; Composition 8 study,20.16 ± 4.96^ΔΔ pg/ml
same,IL-4 (serum),[3]; Composition 8 study,13.41 ± 4.21^ΔΔ pg/ml
